According to patent US12162878B2 (HINOVA PHARMACEUTICALS INC., priority 2018, dated 2024):
Where two headings read alike, the source gives them in different places.

How the values were obtained:
Assay type in all cases: cell-based, human
BT474 cells = test: Inhibition of proliferation of BT474 cells (CCK-8); settings: for IC50: Homo sapiens, BT-474, 144 h, 6 days, CCK-8
Description: (§1) • BT474 cell line (Cell Bank of Chinese Academy of Sciences, TCHu143) • FBS (Gibco, Cat. No. 10099-141) • 0.01M PBS (Biosharp, Cat. No. 162262) • RIPM1640 (Hyclone, Cat. No. 308090.01) • Penicillin-Streptomycin (Hyclone, Cat. No. SV30010) • Cell counting kit-8 (Signalway Antibody, Cat. No. CP002) • DMSO (Sigma, Cat. No. D5879) • Centrifuge Tube, 15 ml (Excell Bio, Cat. No. CS015-0001) • Cell Culture Dish (Excell Bio, Cat. No. CS016-0128) • 96-well cell culture cluster (Corning, Cat. No. 3599) 3. Experimental Method
1) BT474 cells were subcultured in cell culture media, and the cells in good growth condition were seeded in a 96-well plate, 80 μL for each well, thus the number of cells per well was 1500, then the plate was cultured overnight in a 37° C., 5% CO2 cell incubator.
2) The drug was prepared with dimethyl sulfoxide (DMSO) as a 10 mM stock solution. Prior to use, the solution was diluted 3 times with DMSO, and then diluted with a 3-fold gradient to obtain 9 concentration gradients. Then, each concentration of the compound was further diluted 200 times with the culture media (to ensure that DMSO concentration in the culture system was 0.1%), 2 repeat wells for each concentration. The diluted solution of each compound (20 μL) was added to the cell culture well (with a final concentration of 10 μM, 3.3 μM, […] and shaken gently for mixing. In addition, three negative control wells containing only cells and three blank control wells containing only culture medium (20 μL DMSO diluted 200 times with culture medium being added to six wells) were included.
(§2) (1) After culturing for 6 days, 10 μL CCK-8 was added to each well and cultured for additional 2.5 h in a 37° C., 5% CO2 cell incubator.
(§3) (2) The absorbance (OD value) at 450 nm was measured with a multifunctional microplate reader.
(§4) (3) The data was analyzed by the Dose-response-inhibition equation in the software GraphPad Prism6, and the IC50 value was obtained.

CWR22RV1 cells = test: Inhibition of proliferation of CWR22RV1 cells (CCK-8); settings: Homo sapiens, CWR22Rv1, 144 h, 6 days
In short: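 Cells seeded at 1500/well, cultured overnight, then exposed to compounds in 3-fold dilutions (9 concentrations from 10 μM top final, 0.1% DMSO) for 6 days at 37 °C. Viability read by CCK-8 absorbance at 450 nm after 2.5 h; IC50 from dose-response inhibition fit.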

Vcap cells = test: Compound in combination with androgen receptor inhibitor HC-1119, proliferation of Vcap cells (CCK-8); settings: for IC50: Homo sapiens, VCaP, 144 h, 6 days, read-out: IC50 for inhibition on the activity of Vcap; for effect of combination with HC-1119 on inhibitory action on Vcap cells (in words): in combination with HC-1119, Vcap cells
Description: as §1, with “Vcap” for “BT474”, “TCHu220)” for “TCHu143)”, “DMEM HIGH Glucose” for “RIPM1640”, “SH30243.01)” for “308090.01)”, “2.” for “3.”
1) Vcap cells were subcultured in cell culture media, and the cells in good growth condition were seeded in a 96-well plate, 60 μL for each well, thus the number of cells per well was 10000, then the plate was cultured overnight in a 37° C., 5% CO2 cell incubator.
2) The drug was prepared with dimethyl sulfoxide (DMSO) as a 10 mM stock solution. Prior to use, the solution was diluted 3 times with DMSO, and then diluted with a 3-fold gradient to obtain 9 concentration gradients. Then, each concentration of the compound was further diluted 200 times with the culture media (to ensure that DMSO concentration in the culture system was 0.1%), 2 repeat wells for each concentration. The diluted solution of each compound (20 μL) was added to the cell culture well (with a final concentration of 10 μM, 3.3 μM, 1.1 μM . . . ); while the solution of HC-1119 was diluted with culture media to the concentrations of 50 μM and […], respectively, and the diluted solution of HC-1119 was added to the corresponding cell culture well (with a final concentration of 10 μM, 1 μM), then shaken gently for mixing. In addition, three negative control wells containing only cells and three blank control wells containing only culture media (20 μL DMSO diluted 200 times with culture media being added to six wells) were included.
as §2, §3, §4

[1] = in combination with 1 μM HC-1119, Vcap cells
[2] = in combination with 10 μM HC-1119, Vcap cells

IC50 (BT474 cells)	IC50 (Vcap cells; compound alone, Vcap cells)	IC50 (Vcap cells; [1])	IC50 (Vcap cells; [2])	SMILES	IC50 (CWR22RV1 cells)	inhibitory action on BT474 cells (in words) (BT474 cells)	effect of combination with HC-1119 on inhibitory action on Vcap cells (in words) (Vcap cells)
330 nM				[2H]C([2H])([2H])n1cc(-c2cc(NS(=O)(=O)CC)ccc2N2CCC3(CC2)CC3)c2cc[nH]c2c1=O [Compound 41]	5 nM		
130 nM				[2H]C([2H])([2H])n1cc(-c2cc(S(=O)(=O)CC)ccc2N2CCC3(CC3)C2)c2cc[nH]c2c1=O [Compound 55, 4-(5(ethylsulfonyl)-2-(5-aza-spiro[2.4]heptan-5-yl)phenyl)-6-trideuteromethyl-1H-pyrrolo[2,3-c]pyridin-7(6H)-one]	21 nM	effective inhibitory action	
	15 nM	0.33 nM	0.13 nM	[2H]C([2H])([2H])n1cc(-c2cc(S(C)(=O)=O)ccc2N2CCC3(CC2)CC3(F)F)c2cc[nH]c2c1=O [Compound 184, 4-(2-(1,1-difluoro-6-aza-spiro[2.5]octan-6-yl)-5-(methylsulfonyl)phenyl)-6-trideuteromethyl-1H-pyrrolo[2,3-c]pyridin-7(6H)-one]	8.1 nM		improve the inhibitory action
	17.6 nM	0.55 nM	0.18 nM	[2H]C([2H])([2H])n1cc(-c2cc(S(C)(=O)=O)c(F)cc2N2CCC3(CC2)CC3(F)F)c2cc[nH]c2c1=O [Compound 219, 4-(2-(1,1-difluoro-6-aza-spiro[2.5]octan-6-yl)-4-fluoro-5-(methylsulfonyl)phenyl)-6-trideuteromethyl-1H-pyrrolo[2,3-c]pyridin-7(6H)-one]	7.1 nM		improve the inhibitory action
